Experiments:
[1] = format: physicochemical; conditions: 0.5% (w/v) aqueous solution, D65 fluorescent lamp 13,000 Lx
Protocol: A 0.5% (w/v) aqueous solution of pyridoxine 3-β-D-glucoside (pH 6.7) in a volume of 0.3 ml was enclosed in a 1-ml volume glass ampoule, and irradiated with a D65 fluorescent lamp (Toshiba) for 14 days. The irradiation was performed at room temperature with an illumination of 13,000 Lx. Samples before the irradiation and after 1 day, 7 days and 14 days of the irradiation were analyzed by HPLC to measure a pyridoxine 3-β-D-glucoside content. A solution of pyridoxine hydrochloride of the same concentration (adjusted to pH 6.7) was treated in the same manner, and the results were compared. The HPLC measurement conditions were as follows.
Column: Inertsil ODS-3 ([…], ([…], φ4.6×150 mm, GL Science Inc.)
Eluent acetonitrile:0.1% (v/v) trifluoroacetic acid, 5 mM sodium 1-hexanesulfonate=1:9
Column temperature: 40° C.
Aqueous solutions (0.5% (w/v)) of pyridoxine 3-β-D-glucoside hydrochloride, pyridoxal 3-β-D-glucoside, pyridoxamine 3-β-D-glucoside, pyridoxine 3-β-D-galactoside, and pyridoxine hydrochloride (adjusted to pH 6.3 to 7.2 with HCl or NaOH) were each sealed in a volume of 0.3 ml in a 1-ml volume glass ampoule, and light irradiation and HPLC quantification were performed in the same manner as in Test Example 1. […] Test Example 4 (thermal stability of pyridoxine 3-β-D-glucoside hydrochloride and various 3-glycosides) […]

[2] = Thermal stability of aqueous solution kept at 50° C., HPLC; format: physicochemical; conditions: 0.5% (w/v) aqueous solution, 50° C. for 90 days
Protocol: A 0.5% (w/v) aqueous solution of pyridoxine 3-β-D-glucoside (pH 6.7) in a volume of 0.3 ml was sealed in a 1-ml volume glass ampoule, and kept at 50° C. under light shielding. The sample was warmed for 90 days, and analyzed during the warming by HPLC (analysis conditions were the same as those applied in Test Example 1) to measure a pyridoxine 3-β-D-glucoside content. A solution of pyridoxine hydrochloride of the same concentration (adjusted to pH 6.7) was treated in the same manner, and the results were compared.
Aqueous solutions (0.5% (w/v)) of pyridoxine 3-β-D-glucoside hydrochloride, pyridoxal 3-β-D-glucoside, pyridoxamine 3-β-D-glucoside, pyridoxine 3-β-D-galactoside, pyridoxine hydrochloride, pyridoxal hydrochloride, and pyridoxamine hydrochloride (adjusted to pH 6.3 to 7.2 with HCl or NaOH) were each sealed in a volume of 0.3 ml in a 1-ml volume glass ampoule, […] in the same manner as in Test Example 2.
0.5% (w/v) Aqueous solutions of pyridoxine 3,4′-cyclic sodium phosphate and pyridoxine hydrochloride (adjusted to pH 6.5 to 6.8) were each sealed in a volume of 0.3 ml in a 1-ml volume glass ampoule, and warming at 50° C. and HPLC analysis were performed in the same manner as in Test Example 2.

## Cc1ncc(CO)c(CO)c1O.Cl [pyridoxine hydrochloride]
[1]
  coloring of the aqueous solution after the light irradiation: colored in pale yellow
[2]
  coloring of the aqueous solution after the warming: colored in yellow

— patent publication US8003615B2, “Stable vitamin B6 derivative” (Daiichi Fine Chemical Co., Ltd., priority 2003, dated 2011)
